Assay results published in patent US20110038997A1, “Method of processing poultry and other meat to reduce or eliminate Salmonella” (Birko Corporation, priority 2007, published 2011).

Tests used:
Type in all cases: cell-based
Escherichia coli (SAC-2) = test: Log kill of E. coli SAC-2 by lactic/citric acid mixtures; settings: 2.5% acid, total; 15 seconds, 76 deg F
Procedure: (§1) The tests were performed at room temperature, e.g., 71 deg. F. A reaction mixture was prepared including the Salmonella, water and the aqueous solution of lactic acid. The reaction was permitted to proceed for the time indicated for each test in Table 1, and was terminated by the introduction of a quench buffer comprising 4.2 M potassium phosphate buffer, pH 7.2. The results of the test were evaluated using a series of 10-fold dilutions as needed to determine, on a standard plating agar, the titer of bacteria that survived the antimicrobial treatment. The plating medium was Salmonella Shigella agar, a medium that would allow the growth of most bacteria. The reduction in the bacteria count is expressed as the “log kill.” “Log kill” is generally defined as log10[initial cfu/ml]−log10[remaining cfu/ml].
An experiment was performed using the same protocol as in Example 1. In this case, the target bacteria was a sample of E. coli (given the name “SAC-2”) taken from a local sewer facility. The isolate was characterized using standard microbiological methods including selective and indicative culture media and other metabolic tests. The results obtained were consistent with E. coli.
(§2) The duration of treatment was 15 seconds at an ambient temperature of 76 deg F.

[1] = test system: Escherichia coli (ATCC 12435); test: Log kill of E. coli ATCC 12435 by lactic/citric acid mixtures; settings: 2.5% acid, total; 15 seconds, 76 deg F
Procedure: as §1, §2
The same tests were repeated using E. coli ATCC 12435 instead of the SAC-2 E. coli, and tryptic soy agar was employed instead of Salmonella Shigella agar.

Salmonella culture (M61) = test: Log kill of Salmonella M61 in suspension, acid treatment, quench and plating on Salmonella Shigella agar
Procedure: In each instance a target sample was employed using approximately 50 micro liters of a Salmonella culture (given the name “M61”) derived from a sample of chicken meal contaminated with chicken feces and approximately 1.5×10^7 cells per ml. […] The results obtained were consistent with the genus Salmonella.
(§3) The tests were performed at room temperature, e.g., 71 deg. […] The reaction was permitted to proceed for the time indicated for each test in Table 1, and was terminated by the introduction of a quench buffer comprising 4.2 M potassium phosphate buffer, pH 7.2. […] The plating medium was Salmonella Shigella agar, […]. The reduction in the bacteria count is expressed as the “log kill.” “Log kill” is generally defined as log10[initial cfu/ml]−log10[remaining cfu/ml].
An experiment was performed using the same protocol as in Example 1, except that the duration of treatment with the antimicrobial agent was maintained constant at 20 seconds. […] All tests were conducted at an ambient temperature of approximately 71 deg. F.
An experiment was performed using the same protocol as in Example 3. In this case, the target organism was a sample of “M61” Salmonella.

[2] = test system: Salmonella enterica ATCC 14028; test: Log kill of Salmonella enterica ATCC 14028 in suspension, plating on tryptic soy agar; settings: for Log Kill Salmonella (ATCC 14028) / Relative Kill Salmonella (ATCC 14028): 15 seconds
Procedure: as §3
Similar tests were performed using Salmonella enterica ATCC 14028 instead of the M61 Salmonella, and tryptic soy agar was employed instead of Salmonella Shigella agar.
The same tests were repeated using Salmonella enterica ATCC 14028 instead of the M61 Salmonella, and tryptic soy agar was employed instead of Salmonella Shigella agar.
The same tests were repeated using Salmonella enterica ATCC 14028 instead of Salmonella M61, and tryptic soy agar was employed instead of Salmonella shigella.
Another series of tests were performed as those resulting in Table VB, except that the acids were present in a total amount of 2%.

SMILES	Log Kill Escherichia coli (SAC-2) (Escherichia coli (SAC-2))	Log Kill Escherichia coli (ATCC 12435) [1]	Salmonella (M61) Log Kill (Salmonella culture (M61); 2.5 wt % aqueous solution, 80 sec., room temperature 71 deg. F) [log kill]	performance compared to that of lactic acid, Salmonella M61 log kill (Salmonella culture (M61); 2.5 wt. % solution, 80 seconds)	Log Kill Salmonella (ATCC 14028) ([2]; 2.0% total acid)	Relative Kill Salmonella (ATCC 14028) ([2]; 2.0% total acid, 40/40 = 1)	Citric Acid Efficacy Log kill (75 F., 20 sec) ([2]; 2.5 % citric acid, Salmonella ATCC 14028, 75 F., 20 sec)	Salmonella (ATCC 14028) Log Kill ([2]; 2.5 wt % aqueous solution, 15 sec.) [log kill]	Log Kill Salmonella (ATCC 14028) ([2]; […] total acid)	Relative Kill Salmonella (ATCC 14028) ([2]; […] total acid, 80/0 = 1)
CC(O)C(=O)O (stereo not shown) [lactic acid]	0.953	1.93	–	–	–	–	–	–	–	–
O=C(O)CC(O)(CC(=O)O)C(=O)O [citric acid]	–	–	0.29	poor	0.444	0.663	0.555	0.56	0.322	0.422
